Measurements published in US7226892B2, “Herbicidal composition and use” (Durga Technologies ApS, priority 2003, dated 2007).

How the values were obtained:
[1] = respiratory tract/lungs, eyes, skin; cited from earlier work
[2] = tested on: mixed vegetation of grasses and weeds; assay: Spraying of glycine solution onto mixed vegetation; format: in vivo; settings: glycine alone, summary statement
Text: A common squirt bottle delivering a fine spray was used for spraying the weeds.
A solution of 90 g of glycine+15 g of the surfactant “Witconol® SN 90” in 1 L of water was sprayed onto a mixed vegetation of grasses and weeds until the spray liquid dripped from the leaves, corresponding to 0.1 L/m^2.

## O=C(O)CC(O)(CC(=O)O)C(=O)O [citric acid, Citric Acid Monohydrate, reference compound]
[1]
  risk identification / classification as irritant: Irritates respiratory tract/lungs, irritates eyes, skin irritating

## NCC(=O)O [glycine, 2-aminoethanoic acid]
[1]
  risk identification / classification as irritant: not classified as an irritant
[2]
  herbicidal activity of glycine per se: no noticeable herbicidal activity
